Measurements reported in ChEMBL document CHEMBL5316263, “Structure-Based Discovery of Selective Histone Deacetylase 8 Degraders with Potent Anticancer Activity” (J Med Chem, 2023).
The source made the active and inactive calls. The rule behind the calls is not given here.

Legend:
A549 [1] = assay: Effect on CYP1B1 gene in human A549 cells at 10 uM measured after 20 hrs by RNA sequencing analysis; assay type: functional, cell-based
A549 [2] = assay: Induction of apoptosis in human A549 cells assessed as late apoptotic cells at 2.5 uM incubated for 72 hrs by annexin V-FITC staining based flow cytometry (reference value: 0.048%); assay type: functional
[3] = target: T1, Protein cereblon/Histone deacetylase 8 (Homo sapiens) (UniProt Q9BY41+Q96SW2); assay: Protac activity at CRBN/HDAC8 in human A549 cells assessed as degradation of HDAC8 at 2 uM measured after 20 hrs by Western blot analysis relative to control; assay type: cell-based
T1 sequence (Q96SW2 whole entry, looked up): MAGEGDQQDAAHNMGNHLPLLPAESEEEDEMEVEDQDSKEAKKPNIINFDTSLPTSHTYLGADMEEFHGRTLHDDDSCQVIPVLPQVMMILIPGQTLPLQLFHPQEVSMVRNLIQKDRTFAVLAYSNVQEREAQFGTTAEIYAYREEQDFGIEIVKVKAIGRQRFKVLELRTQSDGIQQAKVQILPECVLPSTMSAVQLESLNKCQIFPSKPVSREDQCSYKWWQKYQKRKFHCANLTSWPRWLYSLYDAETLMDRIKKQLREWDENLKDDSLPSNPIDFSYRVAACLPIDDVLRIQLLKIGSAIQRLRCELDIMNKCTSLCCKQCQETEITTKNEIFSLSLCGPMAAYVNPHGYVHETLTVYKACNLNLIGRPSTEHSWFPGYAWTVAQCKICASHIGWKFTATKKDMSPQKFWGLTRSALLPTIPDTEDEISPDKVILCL
T1 sequence (Q9BY41 whole entry, looked up): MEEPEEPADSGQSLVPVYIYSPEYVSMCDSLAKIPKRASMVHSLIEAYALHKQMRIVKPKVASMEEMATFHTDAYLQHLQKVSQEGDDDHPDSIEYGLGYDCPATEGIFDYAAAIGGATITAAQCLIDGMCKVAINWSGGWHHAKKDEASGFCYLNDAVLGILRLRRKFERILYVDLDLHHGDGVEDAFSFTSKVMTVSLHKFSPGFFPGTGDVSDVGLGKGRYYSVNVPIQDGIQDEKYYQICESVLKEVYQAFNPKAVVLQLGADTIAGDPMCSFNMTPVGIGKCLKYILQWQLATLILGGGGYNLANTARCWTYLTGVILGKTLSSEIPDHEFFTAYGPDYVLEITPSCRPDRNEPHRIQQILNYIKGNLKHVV

A549 [4] = assay: Antiproliferative activity against human A549 cells assessed as inhibition of cell growth measured after 72 hrs by CCK-8 method; assay type: functional, cell-based
A549 [5] = assay: Antiproliferative activity against human A549 cells assessed as inhibition of cell growth measured after 72 hrs under irradiation by CCK-8 method; assay type: functional, cell-based; conditions: A549, light or radiation study
A549 [6] = assay: Effect on OASL gene in human A549 cells at 10 uM measured after 20 hrs by RNA sequencing analysis; assay type: functional, cell-based
A549 [7] = assay: Effect on EREG gene in human A549 cells at 10 uM measured after 20 hrs by RNA sequencing analysis; assay type: functional, cell-based
A549 [8] = assay: Effect on DKK1 gene in human A549 cells at 10 uM measured after 20 hrs by RNA sequencing analysis; assay type: functional, cell-based
A549 [9] = assay: Effect on MAPK4 gene in human A549 cells at 10 uM measured after 20 hrs by RNA sequencing analysis; assay type: functional, cell-based
A549 [10] = assay: Effect on FSTL4 gene in human A549 cells at 10 uM measured after 20 hrs by RNA sequencing analysis; assay type: functional, cell-based
A549 [11] = assay: Downregulation of HSPA6 in human A549 cells measured after 20 hrs by proteomic analysis; assay type: functional, cell-based
A549 [12] = assay: Downregulation of IL6ST in human A549 cells measured after 20 hrs by proteomic analysis; assay type: functional, cell-based
A549 [13] = assay: Downregulation of RIMKLB in human A549 cells measured after 20 hrs by proteomic analysis; assay type: functional, cell-based
A549 [14] = assay: Induction of apoptosis in human A549 cells incubated for 72 hrs by annexin V-FITC staining based flow cytometry; assay type: functional, cell-based; conditions: dose 1.25-20 µM
A549 [15] = assay: Induction of apoptosis in human A549 cells assessed as viable cells at 2.5 uM incubated for 72 hrs by annexin V-FITC staining based flow cytometry (reference value: 99.9%); assay type: functional; conditions: read-out: Activity
A549 [16] = assay: Induction of apoptosis in human A549 cells assessed as early apoptotic cells at 1.25 uM incubated for 72 hrs by annexin V-FITC staining based flow cytometry (reference value: 0.099%); assay type: functional
A549 [17] = assay: Induction of apoptosis in human A549 cells assessed as early apoptotic cells at 2.5 uM incubated for 72 hrs by annexin V-FITC staining based flow cytometry (reference value: 0.099%); assay type: functional
A549 [18] = assay: Induction of apoptosis in human A549 cells assessed as late apoptotic cells at 20 uM incubated for 72 hrs by annexin V-FITC staining based flow cytometry (reference value: 0.048%); assay type: functional
A549 [19] = assay: Induction of apoptosis in human A549 cells assessed as upregulation of cleaved PARP level measured after 48 hrs by Western blot analysis; assay type: functional, cell-based; conditions: dose 1.25-20 µM
A549 [20] = assay: Induction of apoptosis in human A549 cells assessed as downregulation of PCNA level at 1.25 to 20 uM measured after 48 hrs by Western blot analysis; assay type: functional, cell-based; conditions: dose 1.25-20 µM
A549 [21] = assay: Induction of apoptosis in human A549 cells assessed as late apoptotic cells at 5 uM by annexin V-FITC staining based flow cytometry (reference value: 0.00%); assay type: functional
A549 [22] = assay: Induction of apoptosis in human A549 cells assessed as early apoptotic cells at 5 uM incubated with compound followed by irradiation by annexin V-FITC staining based flow cytometry (reference value: 6.26%); assay type: functional
A549 [23] = assay: Induction of cell cycle arrest in human A549 cells assessed as accumulation of cells at G2/M phase at 20 uM measured after 72 hrs by propidium iodide staining based flow cytometry analysis; assay type: functional
[24] = target: Protein cereblon/NAD-dependent protein deacetylase sirtuin-7 (Homo sapiens) (UniProt Q9NRC8+Q96SW2); assay: Protac activity at CRBN/Sirt7 in human A549 cells assessed as reduction in Sirt7 protein level at 0.1 to 10 uM by Western blot analysis; assay type: cell-based; conditions: dose 0.1-10 µM
Chain of Protein cereblon/NAD-dependent protein deacetylase sirtuin-7 (Homo sapiens) (Q96SW2 whole entry, looked up): as the sequence (Q96SW2 whole entry, looked up) above
Chain of Protein cereblon/NAD-dependent protein deacetylase sirtuin-7 (Homo sapiens) (Q9NRC8 whole entry, looked up): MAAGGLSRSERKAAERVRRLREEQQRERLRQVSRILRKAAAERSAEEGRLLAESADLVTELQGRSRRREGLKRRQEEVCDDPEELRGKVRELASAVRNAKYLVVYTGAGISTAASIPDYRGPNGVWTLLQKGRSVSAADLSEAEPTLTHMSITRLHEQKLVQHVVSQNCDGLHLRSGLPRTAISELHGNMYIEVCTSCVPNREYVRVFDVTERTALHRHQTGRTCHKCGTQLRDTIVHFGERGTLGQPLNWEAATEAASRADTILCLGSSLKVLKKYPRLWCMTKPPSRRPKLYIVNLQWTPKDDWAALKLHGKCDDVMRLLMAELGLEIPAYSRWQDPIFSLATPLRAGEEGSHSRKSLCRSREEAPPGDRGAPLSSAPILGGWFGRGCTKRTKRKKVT

[25] = target: Cereblon/Ikaros (Homo sapiens) (UniProt Q96SW2+Q13422); assay: Protac activity at CRBN/IKZF1 in human A549 cells assessed as reduction in IKZF1 protein level at 10 uM by Western blot analysis; assay type: cell-based
[26] = target: T1, Protein cereblon/Histone deacetylase 8 (Homo sapiens); assay: Protac activity at CRBN/HDAC8 in human HCT-116 cells assessed as reduction in HDAC8 protein level at 0.1 to 10 uM by Western blot analysis; assay type: cell-based; conditions: dose 0.1-10 µM
A549 [27] = assay: Inhibition of HDAC8 foci formation in human A549 cells measured after 20 hrs by DAPI staining based immunofluorescence assay; assay type: functional, cell-based; conditions: dose 0.5-8 µM
HCT-116 = assay: Inhibition of HDAC8 foci formation in human HCT-116 cells measured after 20 hrs by DAPI staining based immunofluorescence assay; assay type: functional, cell-based; conditions: dose 0.5-8 µM
[28] = target: T1, Protein cereblon/Histone deacetylase 8 (Homo sapiens); assay: Protac activity at CRBN/HDAC8 in human A549 cells assessed as reduction in HDAC8 protein levels at 10 uM measured after 16 hrs by Western blot analysis; assay type: cell-based
Jurkat = assay: Antiproliferative activity against human Jurkat cells at 0.1 to 10 uM measured after 72 hrs by CCK-8 method; assay type: functional, cell-based; conditions: dose 0.1-10 µM
HBEC3-KT = assay: Antiproliferative activity against human HBEC3-KT cells at 0.1 to 10 uM measured after 72 hrs by CCK-8 method; assay type: functional, cell-based; conditions: dose 0.1-10 µM
A549 [29] = assay: Inhibition of DNA damage repair in human A549 cells assessed as decrease in gamma-H2AX level at 5 uM incubated for 24 hrs followed by irradiation for 4 hrs by immunofluorescence staining based analysis; assay type: functional, cell-based
A549 [30] = assay: Inhibition of DNA damage repair in human A549 cells assessed as reduction in Ku70 protein level at 5 uM incubated for 24 hrs by immunofluorescence staining based analysis; assay type: functional, cell-based
A549 [31] = assay: Inhibition of DNA damage repair in human A549 cells assessed as reduction in Ku80 protein level at 5 uM incubated for 24 hrs by immunofluorescence staining based analysis; assay type: functional, cell-based
A549 [32] = assay: Antitumor activity against human A549 cells xenografted in NOD/SCID mouse at 5 mg/kg, ip administered every 5 days measured at day 30; assay type: functional, organism-based; conditions: time 30.0 day
[33] = Toxicity in NOD/SCID mouse xenografted with human A549 cells assessed as change in body weight loss at 5 mg/kg, ip administered every 5 days measured at day 30; assay type: organism-based; conditions: in vivo, 720 h, time 30 day
[34] = target: T1, Protein cereblon/Histone deacetylase 8 (Homo sapiens); assay: In vivo protac activity at CRBN/HDAC8 in human A549 cells xenografted in NOD/SCID mouse assessed as degradation of HDAC8 at 5 mg/kg, ip administered every 5 days measured at day 30 by Western blot analysis; assay type: functional, organism-based; conditions: time 30.0 day
A549 [35] = assay: Antitumor activity against human A549 cells xenografted in NOD/SCID mouse assessed as increase in gamma-H2AX expression at 5 mg/kg, ip administered every 5 days measured at day 30 under irradiation condition by […] analysis; assay type: functional, organism-based; conditions: time 30.0 day

SMILES: O=C1CCC(N2C(=O)c3cccc(NCc4cn(CCOCCOc5ccc(Cn6ccc7ccc(C(=O)NO)cc76)cc5)nn4)c3C2=O)C(=O)N1 (centres undefined)
- Activity (A549 [1]): Active
- Activity (A549 [2]): 15.3%
- Activity [3]: 85.4%
- IC50 (A549 [4]; A549, 72 h): 9.55 µM
- Activity (A549 [4]; dose <= 1.5 µM): Dose-Dependent Effect
- IC50 (A549 [5]): 6.04 µM
- Activity (A549 [6]): Active
- Activity (A549 [7]): Active
- Activity (A549 [8]): Active
- Activity (A549 [9]): Active
- Activity (A549 [10]): Active
- Activity (A549 [11]): Active
- Activity (A549 [12]): Active
- Activity (A549 [13]): Active
- Activity (A549 [14]): Dose-Dependent Effect
- viability at 2.5 µM (A549 [15]): 61.7%
- Activity (A549 [16]): 24.2%
- Activity (A549 [17]): 22.5%
- Activity (A549 [18]): 22.7%
- Activity (A549 [19]): Dose-Dependent Effect
- Activity (A549 [20]): Active
- Activity (A549 [21]): 6.19%
- Activity (A549 [22]): 26.7%
- Activity (A549 [23]): inactive
- Activity [24]: inactive
- Activity [25]: Active
- Activity [26]: Active
- inhibition (A549 [27]): Dose-Dependent Effect
- inhibition (HCT-116): Dose-Dependent Effect
- Activity [28]: Active
- Activity (Jurkat): Active
- Activity (HBEC3-KT): Active
- inhibition (A549 [29]): Active
- inhibition (A549 [30]): Active
- inhibition (A549 [31]): Active
- Activity (A549 [32]): Active
- Activity [33]: Non-Toxic
- Activity [34]: Active
- Activity (A549 [35]): Active
